Tests used:
Format in all cases: functional
Bacillus subtilis = assay: Antimicrobial activity against Bacillus subtilis
Staphylococcus aureus = assay: Antimicrobial activity against Staphylococcus aureus
Enterococcus faecalis = assay: Antimicrobial activity against Enterococcus faecalis
Escherichia coli = assay: Antimicrobial activity against Escherichia coli

Measured: MIC

C/C=C/C1=CC(=O)[C@@H](O)[C@@H]1O [TERREIN]
50 µg/mL: Bacillus subtilis | Staphylococcus aureus | Enterococcus faecalis | Escherichia coli

From ChEMBL document CHEMBL1148105, “Bioactive metabolites from a marine-derived strain of the fungus Emericella variecolor” (2002)
